# Source: article PMC6358866 (International Journal of Molecular Sciences, 2019)
# How the values were obtained:
# [1] = system: Staphylococus aureus ATCC 6538 biofilm; experiment: Effect of the lipopeptide on lens liquids against biofilms on 96-well polystyrene plates; type: cell-based, Staphylococcus aureus; details: SA biofilm on polystyrene, lipopeptide alone in PBS, 24 h
# Description: (§1) Bacterial strains were obtained from the Polish Collection of Microorganisms (Polish Academy of Science, Wroclaw, Poland). Three Gram-positive and two Gram-negative strains linked with CL-related infections were chosen for the study (Staphylococus aureus ATCC 6538, Staphylococcus epidermidis ATCC 14990, Pseudomonas aeruginosa ATCC 9027, Escherichia coli ATCC 25922, and Enterococcus faecalis ATCC 29212). The bacteria were cultured in a Mueller Hinton Broth II (MHB, Biocorp, Warsaw, Poland) overnight, under aerobic conditions at 37 °C. […]
# (§2) Bacterial suspensions were added to 96-well plates (Kartell, Noviglio, Italy) at initial inoculums of ca. 5 × 10^8 CFU/mL and incubated under aerobic conditions with shaking (120 rpm) at 37 °C for 24 h. […] After 1.5 h of incubation, the absorbance was measured at 570 and 600 nm using a microplate reader (Thermo Fisher Scientific, Waltham, MA, USA). […] The metabolic activity of bacteria in the samples was measured according to the following formula:
# (§3) Positive controls (100%) were wells with pre-grown biofilms where the MHB II was replaced with pure PBS, while negative controls were wells with pure MHB II (also replaced with PBS). After 24 h of incubation (aerobic conditions, 120 rpm shaking, 37 °C), the solutions were replaced with resazurin in MHB II and the results were read and presented as described in Section 4.3.
# [2] = system: Staphylococcus epidermidis ATCC 14990 biofilm; experiment: as above; type: cell-based; details: SE biofilm on polystyrene, lipopeptide alone in PBS, 24 h
# Description: as §1, §2, §3
# [3] = system: Enterococcus faecalis ATCC 29212 biofilm; experiment: as above; type: cell-based; details: EF biofilm on polystyrene, lipopeptide alone in PBS, 'the same concentration' (32 or 16 mg/L), 24 h
# Description: as §1, §2, §3
# [4] = system: Escherichia coli ATCC 25922 biofilm on CLs; experiment: Lipopeptide, lens liquids and combinations against biofilms on CLs after withdrawal of the antimicrobial solution; type: cell-based; details: EC biofilm on CLs, all tested concentrations, after withdrawal and 24 h in MHB II
# Description: (§4) Bacterial strains were obtained from the Polish Collection of Microorganisms (Polish Academy of Science, Wroclaw, Poland). Three Gram-positive and two Gram-negative strains linked with CL-related infections were chosen for the study (Staphylococus aureus ATCC 6538, Staphylococcus epidermidis ATCC 14990, Pseudomonas aeruginosa ATCC 9027, Escherichia coli ATCC 25922, and Enterococcus faecalis ATCC 29212). The bacteria were cultured in a Mueller Hinton Broth II (MHB, Biocorp, Warsaw, Poland) overnight, under aerobic conditions at 37 °C. After incubation, the liquid cultures were centrifuged (2500 rpm for 10 min) and washed with phosphoric buffer (PBS, AppliChem, Darmstadt, Germany) three times and resuspended in fresh MHB II for inoculums appropriate for the performed assays.
# (§5) Bacterial biofilms were cultured on commercially available CLs (1-Day Acuvue Moist, containing Etafilcon A, obtained from Johnson and Johnson Vision Care, Jacksonsville, FL, USA). The CLs were placed in polystyrene 24-well plates (Orange Scientific, Braine-l’Alleud, Belgium) in bacterial suspensions in MHB II at initial inoculums of ca. 5 × 10^8 CFU/mL. After 24 h of incubation (aerobic conditions, 120 rpm shaking, 37 °C), all of the CLs were rinsed three times with PBS. […] After incubation, resazurin was added (final concentration per sample = 0.01%) and absorbance was measured as in the assays 4.3 and 4.4. Positive controls contained CLs with bacterial biofilms placed in pure PBS, while sterile CLs incubated in MHB II replaced with PBS served as negative controls. The experiments were performed in triplicate on three different days.
# (§6) The assay was also performed for the samples where biofilms on CLs were exposed to pure CL solutions. Positive controls (100%) were biofilms on CLs in PBS, while negative controls were CLs previously incubated in pure MHB II replaced for the exposure time with PBS. After 24 h of exposure (aerobic conditions, 120 rpm shaking, 37 °C) all the solutions were removed, replaced with MHB II and the samples were incubated for another 24 h. Resazurin was then added in order to visualize the results. The results were read, calculated, and presented as in the previously-described sections.
# [5] = system: Pseudomonas aeruginosa ATCC 9027 biofilm on CLs; experiment: as above; type: cell-based; details: PA biofilm on CLs, all tested concentrations, after withdrawal and 24 h in MHB II
# Description: as §4, §5, §6
# [6] = system: Enterococcus faecalis ATCC 29212 biofilm on CLs; experiment: as above; type: cell-based; details: EF biofilm on CLs, after withdrawal and 24 h in MHB II
# Description: as §4, §5, §6
# [7] = system: Staphylococcus epidermidis ATCC 14990 biofilm on CLs; experiment: as above; type: cell-based; details: SE biofilm on CLs, lipopeptide in PBS, after withdrawal and 24 h in MHB II
# Description: as §4, §5, §6
# [8] = system: Staphylococus aureus ATCC 6538 biofilm on CLs; experiment: Activity of lipopeptide and CL liquids against biofilms formed on contact lenses; type: cell-based, Staphylococcus aureus; details: SA biofilm on CLs, lipopeptide in PBS, 24 h, resazurin
# Description: as §4
# as §5, with “Positive controls contained CLs with bacterial biofilms placed in pure PBS, while sterile CLs incubated in MHB II replaced with PBS served as negative controls. The experiments were performed in triplicate on three different days.” left out
substance,measurement,setting,value
(C10)2-KKKK-NH2 [Lipopeptide],concentration at which highly active against biofilm,[1],32 mg/L
same,concentration at which highly active against biofilm,[2],16 mg/L
same,reduction of metabolic activity in the biofilm,[3],ca. 95%
same,regrowth of bacterial population after removal,[4],ca. 50%
same,regrowth of bacterial population after removal,[5],fully restored
same,effect on biofilm after removal of the agent,[6],promoted bacterial growth
same,concentration permanently removing biofilm from CLs,[7],16 mg/L
same,concentration reducing metabolic activity of bacteria by at least 90%,[8],16 mg/L
